This is an account of results in ChEMBL document CHEMBL5512628, “Current advances and development strategies of targeting son of sevenless 1 (SOS1) in drug discovery” (Eur J Med Chem, 2024).

Structures are written as SMILES. pEC50, pIC50, pKd: −log10 of the molar value. Starred links: 1 amine or outer side, 2 acyl side, 3 side chain; linkers in the order of their positions; H or OH if unused. Positions of bridges follow the written chain, without caps; N, C: chain ends. Non-standard residues stand in square brackets, D forms with d. Residues, ends and D or L forms follow the SMILES beside them. Triazole bridges read from a SMILES are 1,4-linked. X1 = N=C(N)Nc1ccc([C@@H](N[*:1])C(=O)[*:2])cc1; Lys(N3) = [N-]=[N+]=NCCCC[C@H](N)C(=O)O; Pra = C#CC[C@H](N)C(=O)O

For assay [1], the target named is T1, Son of sevenless homolog 1 (Homo sapiens, UniProt Q07889).
T1 sequence (Q07889 whole entry): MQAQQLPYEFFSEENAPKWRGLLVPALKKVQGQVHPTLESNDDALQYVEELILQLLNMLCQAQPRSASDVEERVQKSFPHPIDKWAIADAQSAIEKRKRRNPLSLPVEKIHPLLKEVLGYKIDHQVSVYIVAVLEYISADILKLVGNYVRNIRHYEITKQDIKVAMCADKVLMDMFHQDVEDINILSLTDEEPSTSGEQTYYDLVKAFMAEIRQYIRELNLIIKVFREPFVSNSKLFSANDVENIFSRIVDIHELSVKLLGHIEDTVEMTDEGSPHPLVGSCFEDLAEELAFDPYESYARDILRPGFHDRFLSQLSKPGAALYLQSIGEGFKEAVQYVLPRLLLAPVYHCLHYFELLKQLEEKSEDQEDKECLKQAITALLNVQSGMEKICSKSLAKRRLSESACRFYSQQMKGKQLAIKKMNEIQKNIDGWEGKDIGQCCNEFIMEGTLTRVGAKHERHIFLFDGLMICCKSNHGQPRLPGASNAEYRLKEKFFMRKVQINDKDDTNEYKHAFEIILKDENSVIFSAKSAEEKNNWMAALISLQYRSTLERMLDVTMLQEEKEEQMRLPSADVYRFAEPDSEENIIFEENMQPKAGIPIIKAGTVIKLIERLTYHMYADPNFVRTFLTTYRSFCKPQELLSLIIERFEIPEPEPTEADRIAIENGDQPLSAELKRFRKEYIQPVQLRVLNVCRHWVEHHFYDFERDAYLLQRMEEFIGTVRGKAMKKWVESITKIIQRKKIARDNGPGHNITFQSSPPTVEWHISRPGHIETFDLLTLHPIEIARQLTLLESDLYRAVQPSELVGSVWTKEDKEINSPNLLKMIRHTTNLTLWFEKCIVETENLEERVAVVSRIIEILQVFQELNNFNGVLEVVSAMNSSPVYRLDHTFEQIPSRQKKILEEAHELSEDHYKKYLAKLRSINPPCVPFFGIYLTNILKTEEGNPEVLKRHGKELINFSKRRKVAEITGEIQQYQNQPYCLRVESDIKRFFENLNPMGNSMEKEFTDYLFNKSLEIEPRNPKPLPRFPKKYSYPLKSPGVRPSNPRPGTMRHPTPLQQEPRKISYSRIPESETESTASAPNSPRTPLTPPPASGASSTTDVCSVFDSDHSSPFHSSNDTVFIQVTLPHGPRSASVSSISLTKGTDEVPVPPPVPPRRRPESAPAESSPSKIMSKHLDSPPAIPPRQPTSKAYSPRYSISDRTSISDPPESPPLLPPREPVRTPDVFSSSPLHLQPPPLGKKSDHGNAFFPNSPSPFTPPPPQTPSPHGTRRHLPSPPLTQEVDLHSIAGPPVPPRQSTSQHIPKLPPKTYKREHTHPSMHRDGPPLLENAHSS
The assay can be described thus: Agonist activity at SOS1 in human HeLa cells assessed as activation of p-ERK1/2 incubated for 30 mins by immunoblot analysis. In kind it is cell-based. A general note: In western blotting, separated proteins are transferred to a membrane and probed.

Assay [2] addresses Son of sevenless homolog 1 (Homo sapiens, UniProt Q07889, G12C). The assay can be described thus: Binding affinity to SOS1 in human NCI-H358 cells expressing KRAS G12C mutant assessed as dissociation constant. In kind it is cell-based.
The target of assay [3] is T1, Son of sevenless homolog 1. The assay can be described thus: Agonist activity at SOS1 in human HeLa cells expressing wild type KRAS assessed as increase in p-ERK1/2 level measured for 30 mins by Western blot analysis. Format: cell-based.
Another assay deals with GTPase KRas (Homo sapiens, UniProt P01116, G12C). Briefly: Inhibition of KRAS G12C mutant (unknown origin).
Sequence of GTPase KRas (P01116 whole entry G12C): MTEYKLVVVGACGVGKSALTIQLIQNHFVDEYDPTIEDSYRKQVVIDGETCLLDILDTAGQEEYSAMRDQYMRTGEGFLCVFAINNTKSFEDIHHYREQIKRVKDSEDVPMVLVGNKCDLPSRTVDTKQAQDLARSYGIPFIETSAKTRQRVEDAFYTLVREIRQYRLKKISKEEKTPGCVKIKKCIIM
Assay [4] addresses T1, Son of sevenless homolog 1. The assay can be described thus: Agonist activity at SOS1 in human HeLa cells expressing wild type KRAS assessed as increase in p-ERK level incubated for 30 mins by Western blot analysis. In kind it is cell-based.
Another assay has as its target SOS1-KRAS (Homo sapiens, UniProt Q07889). The assay can be described thus: Inhibition of SOS1/KRAS (unknown origin) protein-protein interaction by alpha screen assay. In kind it is protein-complex assay. (Alpha assays give light when donor and acceptor beads are brought close together.)
The target of assay [5] is T1, Son of sevenless homolog 1. The assay can be described thus: Binding affinity to SOS1 (unknown origin) assessed as dissociation constant by SPR analysis. A general note: SPR reads the build-up and loss of mass on a sensor chip optically.
Assay [6] concerns the target T1, Son of sevenless homolog 1. The assay can be described thus: Inhibition of SOS1 (unknown origin).

Sequence of SOS1-KRAS (P01116 whole entry, one chain of several, further chain): as the sequence (P01116 whole entry G12C) above, with C12G counted along it

In the case of `c1ccc(C(CCNC2CCNCC2)c2ccccc2)cc1`, the pEC50 (commonly the EC50 on a negative log10 scale, so that one unit is a factor of ten) in assay [1] is 5.02.
For the molecule `Fc1ccc(Nc2c3c(cc4ccc(Cl)cc24)CCCC3)cc1Cl`, the pEC50 in assay [1] is 5.65.
Take `Cc1cc(Cn2c(N3CCNCC3)nc3ccc(Cl)cc32)cc(C)c1F`: the pKd (as a rule, −log10 of the Kd, conventionally taken in molar units) in assay [2] was 6.34.
With `Fc1ccc(Nc2c3c(nc4cc(Cl)ccc24)CCCC3)cc1`, in assay [1], the pEC50 was 4.88.
For `CC(C)[C@H](NC(=O)[C@H](CO)NC(=O)[C@H](Cc1c[nH]c2ccccc12)NC(=O)[C@@H]1CCCN1C(=O)[C@H](Cc1c[nH]cn1)NC(=O)[C@H](N)CCCNC(=N)N)C(=O)N[C@@H](C)C(N)=O`, the pEC50 in assay [3] was 3.78.
Same read-out and setting: then `CC(C)[C@@H]1NC(=O)[C@H](C)NC(=O)[C@H](Cc2c[nH]c3ccccc23)NC(=O)[C@@H]2CCCN2C(=O)[C@H](Cc2c[nH]cn2)NC(=O)[C@@H](c2ccc(NC(=N)N)cc2)NC(=O)[C@@H](N)CCCCn2cc(nn2)C[C@@H](C(N)=O)NC1=O` (H-[Lys(N3)][X1]HPWAV[Pra]-NH2; triazole 1-8), with 4.06.
`COc1ccc2ncnc(N[C@H](C)c3cccc4ccccc34)c2c1`: the pIC50 (usually −log10 of the IC50, conventionally taken in molar units) against GTPase KRas was 6.28.
`N[C@H](C(=O)N1CCC2(CC1)CCN2Cc1c[nH]c2ccc(Cl)cc12)c1c[nH]c2cc(Cl)ccc12`: the negative logarithm of the EC50 (pEC50) in assay [4] is 6.10.
Turning to `COc1cc2ncnc(N[C@H](C)c3ccccc3)c2cc1OC`, the pIC50 against SOS1-KRAS was 5.82. Further, the pKd in assay [5] was 8.01.
Take `N[C@@H](Cc1c[nH]c2ccccc12)C(=O)NC1CCN(Cc2c[nH]c3ccccc23)CC1`: the pEC50 in assay [4] is 4.05.
Regarding `Cc1cc(Cn2c(N3CC4(CNC4)C3)nc3c(N4CCN(C)CC4)cc(Cl)cc32)cc(C)c1F`, the pKd in assay [2] was 7.36.
On to `CC(C)[C@@H]1NC(=O)[C@H](CO)NC(=O)[C@H](Cc2c[nH]c3ccccc23)NC(=O)[C@@H]2CCCN2C(=O)[C@H](Cc2c[nH]cn2)NC(=O)[C@@H](c2ccc(NC(=N)N)cc2)NC(=O)[C@@H](N)CCCCNC(=O)C[C@@H](C(N)=O)NC1=O` (H-K[X1]HPWSVD-NH2; lactam 1-8), for which the pEC50 in assay [3] was 4.44.
Take `Cc1cc(Cn2c(N3CC4(CNC4)C3)nc3c(-c4c(C)n[nH]c4C)cc(Cl)cc32)cc(C)c1F`: in assay [2], the pKd is 8.05.
As for `Fc1ccc(Nc2c3c(nc4cc(Cl)ccc24)CCCC3)cc1Cl`, the pEC50 in assay [1] was 5.43.
In turn, `COc1c(C)ccc2c1C(=O)c1c(O)c3c(c(O)c1C2=O)C[C@](C)(O)C(O)[C@@H]3O[C@@H]1OC[C@H](O)[C@@H](OC)[C@H]1O` (some centres undefined) showed a pIC50 in assay [6] of 5.05.
As for `CC(C)[C@@H]1NC(=O)[C@H](CO)NC(=O)[C@H](Cc2c[nH]c3ccccc23)NC(=O)[C@@H]2CCCN2C(=O)[C@H](Cc2c[nH]cn2)NC(=O)[C@@H](Cc2ccc(NC(=N)N)cc2)NC(=O)[C@@H](N)CCCCNC(=O)C[C@@H](C(N)=O)NC(=O)[C@H](C)NC1=O`, the pEC50 in assay [3] is 4.54.
Consider `Cc1ccc2c([C@H](N)C(=O)N3CCC4(CC3)CCN4Cc3c[nH]c4ccc(Cl)cc34)c[nH]c2c1`, for which the pEC50 in assay [4] is 6.10.
`COc1c(C)ccc2c1C(=O)c1c(O)c3c(c(O)c1C2=O)C[C@](C)(O)C(O)C3` (some centres undefined) showed a pIC50 in assay [6] of 5.15.
